Laboratory results taken from PMC7156458, “Synthetic biology based construction of biological activity-related library of fungal decalin-containing diterpenoid pyrones” (Nature Communications, 2020).

Target: Aβ42 (Homo sapiens, UniProt P05067)
Experiment: Th-T (thioflavin-T) assay of Aβ42 aggregation
Assay type: biochemical
Details: for Th-T assay plate reading, mean of three wells (Supplementary Fig. 47): source data, Ab alone and No Ab as controls

Sequence of Aβ42 (P05067 672-713): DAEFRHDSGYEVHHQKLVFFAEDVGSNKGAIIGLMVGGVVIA

## C=C1CCC2C(C)(CCC=C(C)C)C(O)CCC2(C)C1Cc1c(OC)oc(C)c(C)c1=O (stereo not drawn) [Compound 15, viridoxin A hydrolysate]
Aβ42 aggregation time course, reading M117
  Th-T fluorescence, mean of three wells: 3.35
Aβ42 aggregation time course, reading M118
  Th-T fluorescence, mean of three wells: 3.314
Aβ42 aggregation time course, reading M119
  Th-T fluorescence, mean of three wells: 3.3216
Aβ42 aggregation time course, reading M120
  Th-T fluorescence, mean of three wells: 3.354
Aβ42 aggregation time course, reading M121
  Th-T fluorescence, mean of three wells: 3.335
Aβ42 aggregation time course, reading M122
  Th-T fluorescence, mean of three wells: 3.364
Aβ42 aggregation time course, reading M123
  Th-T fluorescence, mean of three wells: 3.352
Aβ42 aggregation time course, reading M124
  Th-T fluorescence, mean of three wells: 3.339
Aβ42 aggregation time course, reading M125
  Th-T fluorescence, mean of three wells: 3.327
Aβ42 aggregation time course, reading M126
  Th-T fluorescence, mean of three wells: 3.362
Aβ42 aggregation time course, reading M127
  Th-T fluorescence, mean of three wells: 3.317
Aβ42 aggregation time course, reading M128
  Th-T fluorescence, mean of three wells: 3.323
Aβ42 aggregation time course, reading M129
  Th-T fluorescence, mean of three wells: 3.297
Aβ42 aggregation time course, reading M130
  Th-T fluorescence, mean of three wells: 3.34
Aβ42 aggregation time course, reading M131
  Th-T fluorescence, mean of three wells: 3.327
Aβ42 aggregation time course, reading M132
  Th-T fluorescence, mean of three wells: 3.341
Aβ42 aggregation time course, reading M133
  Th-T fluorescence, mean of three wells: 3.324
Aβ42 aggregation time course, reading M134
  Th-T fluorescence, mean of three wells: 3.304
Aβ42 aggregation time course, reading M135
  Th-T fluorescence, mean of three wells: 3.315
Aβ42 aggregation time course, reading M136
  Th-T fluorescence, mean of three wells: 3.347
Supplementary Fig. 47, reading M137
  Th-T fluorescence, mean of three wells: 3.349
Supplementary Fig. 47, reading M138
  Th-T fluorescence, mean of three wells: 3.365
Supplementary Fig. 47, reading M139
  Th-T fluorescence, mean of three wells: 3.354
Supplementary Fig. 47, reading M140
  Th-T fluorescence, mean of three wells: 3.356
Supplementary Fig. 47, reading M141
  Th-T fluorescence, mean of three wells: 3.3427
Supplementary Fig. 47, reading M142
  Th-T fluorescence, mean of three wells: 3.34
Supplementary Fig. 47, reading M143
  Th-T fluorescence, mean of three wells: 3.336
Supplementary Fig. 47, reading M144
  Th-T fluorescence, mean of three wells: 3.346
Supplementary Fig. 47, reading M145
  Th-T fluorescence, mean of three wells: 3.328
Measurement M1
  Th-T assay plate reading, mean of three wells (Supplementary Fig. 47): 0.2276
Measurement M2
  Th-T assay plate reading, mean of three wells (Supplementary Fig. 47): 0.2029
Measurement M3
  Th-T assay plate reading, mean of three wells (Supplementary Fig. 47): 0.2068
Measurement M4
  Th-T assay plate reading, mean of three wells (Supplementary Fig. 47): 0.2103
Measurement M5
  Th-T assay plate reading, mean of three wells (Supplementary Fig. 47): 0.2149
Measurement M6
  Th-T assay plate reading, mean of three wells (Supplementary Fig. 47): 0.2264
Measurement M7
  Th-T assay plate reading, mean of three wells (Supplementary Fig. 47): 0.2421
Measurement M8
  Th-T assay plate reading, mean of three wells (Supplementary Fig. 47): 0.3484
Measurement M9
  Th-T assay plate reading, mean of three wells (Supplementary Fig. 47): 0.4623
Measurement M10
  Th-T assay plate reading, mean of three wells (Supplementary Fig. 47): 0.8904
Measurement M11
  Th-T assay plate reading, mean of three wells (Supplementary Fig. 47): 1.43
Measurement M12
  Th-T assay plate reading, mean of three wells (Supplementary Fig. 47): 1.748
Measurement M13
  Th-T assay plate reading, mean of three wells (Supplementary Fig. 47): 1.906
Measurement M14
  Th-T assay plate reading, mean of three wells (Supplementary Fig. 47): 1.9845
Measurement M15
  Th-T assay plate reading, mean of three wells (Supplementary Fig. 47): 1.9935
Measurement M16
  Th-T assay plate reading, mean of three wells (Supplementary Fig. 47): 2.026
Reading M17, Supplementary Fig. 47 source data
  Th-T fluorescence, mean of three wells: 2.072
time-course reading M97, Supplementary Fig. 47 source data
  Th-T fluorescence, mean of three wells: 3.281
time-course reading M98, Supplementary Fig. 47 source data
  Th-T fluorescence, mean of three wells: 3.314
time-course reading M99, Supplementary Fig. 47 source data
  Th-T fluorescence, mean of three wells: 3.322
time-course reading M100, Supplementary Fig. 47 source data
  Th-T fluorescence, mean of three wells: 3.3481
time-course reading M101, Supplementary Fig. 47 source data
  Th-T fluorescence, mean of three wells: 3.295
time-course reading M102, Supplementary Fig. 47 source data
  Th-T fluorescence, mean of three wells: 3.298
time-course reading M103, Supplementary Fig. 47 source data
  Th-T fluorescence, mean of three wells: 3.312
time-course reading M104, Supplementary Fig. 47 source data
  Th-T fluorescence, mean of three wells: 3.321
time-course reading M105, Supplementary Fig. 47 source data
  Th-T fluorescence, mean of three wells: 3.301
time-course reading M106, Supplementary Fig. 47 source data
  Th-T fluorescence, mean of three wells: 3.313
time-course reading M107, Supplementary Fig. 47 source data
  Th-T fluorescence, mean of three wells: 3.319
time-course reading M108, Supplementary Fig. 47 source data
  Th-T fluorescence, mean of three wells: 3.3191
time-course reading M109, Supplementary Fig. 47 source data
  Th-T fluorescence, mean of three wells: 3.3293
time-course reading M110, Supplementary Fig. 47 source data
  Th-T fluorescence, mean of three wells: 3.309
time-course reading M111, Supplementary Fig. 47 source data
  Th-T fluorescence, mean of three wells: 3.3187
time-course reading M112, Supplementary Fig. 47 source data
  Th-T fluorescence, mean of three wells: 3.343
time-course reading M113, Supplementary Fig. 47 source data
  Th-T fluorescence, mean of three wells: 3.364
time-course reading M114, Supplementary Fig. 47 source data
  Th-T fluorescence, mean of three wells: 3.378
time-course reading M115, Supplementary Fig. 47 source data
  Th-T fluorescence, mean of three wells: 3.333
time-course reading M116, Supplementary Fig. 47 source data
  Th-T fluorescence, mean of three wells: 3.348
